What was measured:
[1] = biological target: cAMP-dependent protein kinase catalytic subunit alpha (Homo sapiens, UniProt P17612); assay: Inhibition of PKAa (unknown origin)
[2] = biological target: Phosphatidylinositol 4,5-bisphosphate 3-kinase catalytic subunit beta isoform (Homo sapiens, UniProt P42338); assay: Inhibition of PI3Kbeta (unknown origin)
[3] = biological target: Hepatocyte growth factor receptor (Homo sapiens, UniProt P08581); assay: Inhibition of MET (unknown origin)
[4] = biological target: Mitogen-activated protein kinase 10 (Homo sapiens, UniProt P53779); assay: Inhibition of JNK3 (unknown origin)
Sequence of Mitogen-activated protein kinase 10 (P53779 whole entry): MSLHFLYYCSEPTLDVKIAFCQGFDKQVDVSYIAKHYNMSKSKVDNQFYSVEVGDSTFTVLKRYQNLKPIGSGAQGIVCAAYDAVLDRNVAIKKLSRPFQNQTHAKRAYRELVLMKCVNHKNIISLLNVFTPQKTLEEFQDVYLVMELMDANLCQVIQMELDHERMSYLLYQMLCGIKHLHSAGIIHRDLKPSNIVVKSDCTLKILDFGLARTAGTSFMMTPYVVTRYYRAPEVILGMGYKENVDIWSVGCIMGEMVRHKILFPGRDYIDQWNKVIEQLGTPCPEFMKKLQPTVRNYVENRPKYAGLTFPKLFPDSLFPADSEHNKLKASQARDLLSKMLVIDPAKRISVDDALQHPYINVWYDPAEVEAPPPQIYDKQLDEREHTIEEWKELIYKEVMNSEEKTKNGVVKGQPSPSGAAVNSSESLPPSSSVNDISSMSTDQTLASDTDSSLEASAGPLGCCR

[5] = biological target: Rho-associated protein kinase (Homo sapiens, UniProt O75116+Q13464); assay: Inhibition of ROCK (unknown origin); assay type: protein-complex assay
Influenza A virus [6] = assay: Antiviral activity against influenza A virus A/PR/8/34 strain incubated with MDCK cells assessed as reduction of viral RNA level equal to 1% of control level after 72 hrs by branched DNA assay; assay type: functional, organism-based; conditions: A/Puerto Rico/8/1934(H1N1)
[7] = biological target: Tyrosine-protein kinase JAK2 (Homo sapiens, UniProt O60674); assay: Inhibition of JAK2 (unknown origin)
Sequence of Tyrosine-protein kinase JAK2 (O60674 whole entry, canonical isoform): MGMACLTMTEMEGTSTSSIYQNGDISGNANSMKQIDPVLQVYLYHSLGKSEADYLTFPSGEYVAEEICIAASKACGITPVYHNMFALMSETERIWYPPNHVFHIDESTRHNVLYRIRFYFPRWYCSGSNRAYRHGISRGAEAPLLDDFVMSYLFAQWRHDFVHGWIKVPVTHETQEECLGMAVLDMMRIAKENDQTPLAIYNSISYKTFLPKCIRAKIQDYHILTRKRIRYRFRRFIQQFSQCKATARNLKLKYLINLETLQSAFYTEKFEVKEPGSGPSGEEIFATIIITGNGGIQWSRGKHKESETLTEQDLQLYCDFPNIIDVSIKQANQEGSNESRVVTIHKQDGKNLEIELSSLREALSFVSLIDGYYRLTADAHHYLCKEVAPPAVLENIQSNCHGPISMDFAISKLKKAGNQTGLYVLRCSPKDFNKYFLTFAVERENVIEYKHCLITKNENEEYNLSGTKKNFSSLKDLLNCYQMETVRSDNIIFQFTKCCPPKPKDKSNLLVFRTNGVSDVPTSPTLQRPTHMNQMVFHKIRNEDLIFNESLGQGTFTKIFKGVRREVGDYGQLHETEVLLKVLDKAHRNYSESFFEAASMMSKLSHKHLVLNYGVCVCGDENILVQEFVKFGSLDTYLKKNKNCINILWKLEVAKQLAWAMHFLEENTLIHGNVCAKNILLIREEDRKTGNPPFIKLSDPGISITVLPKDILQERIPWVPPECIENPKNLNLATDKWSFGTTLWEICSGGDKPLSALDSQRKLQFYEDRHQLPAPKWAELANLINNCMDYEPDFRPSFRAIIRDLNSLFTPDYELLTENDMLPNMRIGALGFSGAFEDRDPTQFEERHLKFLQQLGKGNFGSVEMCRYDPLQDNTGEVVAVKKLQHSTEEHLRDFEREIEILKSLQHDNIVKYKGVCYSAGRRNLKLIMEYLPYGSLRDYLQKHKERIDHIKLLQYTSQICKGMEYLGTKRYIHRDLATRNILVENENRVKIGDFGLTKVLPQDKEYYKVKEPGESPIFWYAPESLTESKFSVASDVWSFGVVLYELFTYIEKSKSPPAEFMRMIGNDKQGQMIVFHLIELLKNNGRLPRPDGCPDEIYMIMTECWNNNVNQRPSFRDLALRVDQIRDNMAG

[8] = biological target: Phosphatidylinositol 4,5-bisphosphate 3-kinase catalytic subunit alpha isoform (Homo sapiens, UniProt P42336); assay: Inhibition of PI3Kalpha (unknown origin)
Sequence of Phosphatidylinositol 4,5-bisphosphate 3-kinase catalytic subunit alpha isoform (P42336 whole entry, canonical isoform): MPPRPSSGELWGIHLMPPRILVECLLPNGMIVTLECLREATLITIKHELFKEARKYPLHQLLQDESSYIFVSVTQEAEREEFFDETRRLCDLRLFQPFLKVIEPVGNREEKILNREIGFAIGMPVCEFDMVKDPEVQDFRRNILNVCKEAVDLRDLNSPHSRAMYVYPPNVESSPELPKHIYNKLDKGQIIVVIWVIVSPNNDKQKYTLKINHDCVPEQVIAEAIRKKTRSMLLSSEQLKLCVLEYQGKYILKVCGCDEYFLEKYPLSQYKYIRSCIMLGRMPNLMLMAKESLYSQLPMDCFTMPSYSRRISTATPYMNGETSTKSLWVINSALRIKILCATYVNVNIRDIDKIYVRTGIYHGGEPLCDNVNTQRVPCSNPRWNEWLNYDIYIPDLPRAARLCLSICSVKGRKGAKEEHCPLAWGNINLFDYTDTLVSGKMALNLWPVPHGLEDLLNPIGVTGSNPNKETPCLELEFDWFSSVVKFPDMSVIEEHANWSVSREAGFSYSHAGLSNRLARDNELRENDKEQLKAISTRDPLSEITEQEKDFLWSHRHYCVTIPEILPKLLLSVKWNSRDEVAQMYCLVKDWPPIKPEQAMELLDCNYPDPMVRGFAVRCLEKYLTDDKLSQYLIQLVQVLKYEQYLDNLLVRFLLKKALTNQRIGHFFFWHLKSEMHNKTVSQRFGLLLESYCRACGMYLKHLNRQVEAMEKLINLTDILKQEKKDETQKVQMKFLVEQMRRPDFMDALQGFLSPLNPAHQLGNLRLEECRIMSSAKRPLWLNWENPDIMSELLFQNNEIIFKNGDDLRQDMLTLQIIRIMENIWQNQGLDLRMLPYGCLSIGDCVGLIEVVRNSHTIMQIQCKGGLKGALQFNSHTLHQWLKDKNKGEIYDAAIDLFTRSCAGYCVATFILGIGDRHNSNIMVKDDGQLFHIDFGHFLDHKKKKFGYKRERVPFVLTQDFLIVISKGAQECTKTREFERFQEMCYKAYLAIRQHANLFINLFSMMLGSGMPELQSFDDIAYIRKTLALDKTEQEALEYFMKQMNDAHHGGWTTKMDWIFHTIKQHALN

[9] = biological target: T1, Phosphatidylinositol 4,5-bisphosphate 3-kinase catalytic subunit delta isoform (Homo sapiens, UniProt O00329); assay: Inhibition of PI3Kdelta (unknown origin)
T1 sequence (O00329 whole entry): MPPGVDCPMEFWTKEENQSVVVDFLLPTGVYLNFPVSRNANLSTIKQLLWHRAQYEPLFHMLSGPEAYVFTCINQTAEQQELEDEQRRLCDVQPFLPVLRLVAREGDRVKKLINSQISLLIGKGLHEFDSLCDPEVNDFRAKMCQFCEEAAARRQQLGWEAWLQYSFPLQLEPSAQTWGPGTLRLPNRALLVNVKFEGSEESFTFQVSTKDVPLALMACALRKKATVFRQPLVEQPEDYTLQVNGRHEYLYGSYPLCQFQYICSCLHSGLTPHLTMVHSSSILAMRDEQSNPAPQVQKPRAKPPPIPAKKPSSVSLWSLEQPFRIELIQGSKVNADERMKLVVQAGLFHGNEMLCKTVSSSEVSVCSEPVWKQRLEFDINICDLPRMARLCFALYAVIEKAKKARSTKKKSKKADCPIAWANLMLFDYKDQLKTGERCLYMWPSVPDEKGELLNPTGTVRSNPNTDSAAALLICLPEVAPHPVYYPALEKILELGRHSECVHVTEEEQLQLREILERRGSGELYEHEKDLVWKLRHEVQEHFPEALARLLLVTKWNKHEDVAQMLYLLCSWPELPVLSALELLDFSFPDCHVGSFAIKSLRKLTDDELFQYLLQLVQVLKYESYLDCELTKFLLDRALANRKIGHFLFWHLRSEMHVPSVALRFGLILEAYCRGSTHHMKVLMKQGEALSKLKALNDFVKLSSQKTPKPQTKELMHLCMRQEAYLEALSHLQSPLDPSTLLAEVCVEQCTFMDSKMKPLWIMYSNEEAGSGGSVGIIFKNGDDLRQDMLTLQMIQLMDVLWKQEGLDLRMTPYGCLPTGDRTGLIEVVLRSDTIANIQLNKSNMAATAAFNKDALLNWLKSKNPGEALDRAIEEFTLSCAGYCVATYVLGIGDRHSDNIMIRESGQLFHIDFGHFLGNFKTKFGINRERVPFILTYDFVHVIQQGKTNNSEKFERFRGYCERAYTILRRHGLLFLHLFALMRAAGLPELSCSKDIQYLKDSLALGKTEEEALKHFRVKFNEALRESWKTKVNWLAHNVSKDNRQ

Influenza A virus [10] = assay: Antiviral activity against Influenza A virus A/PR/8/34 strain incubated with MDCK cells assessed as cell protection after 72 hrs by phenotypic cell protection assay; assay type: functional, organism-based; conditions: A/Puerto Rico/8/1934(H1N1)
[11] = biological target: Cyclin-dependent kinase 2 (Homo sapiens, UniProt P24941); assay: Inhibition of CDK2 (unknown origin)
[12] = biological target: Phosphatidylinositol 4,5-bisphosphate 3-kinase catalytic subunit gamma isoform (Homo sapiens, UniProt P48736); assay: Inhibition of PI3Kgamma (unknown origin)
[13] = biological target: Proto-oncogene tyrosine-protein kinase Src (Homo sapiens, UniProt P12931); assay: Inhibition of SRC (unknown origin)
[14] = biological target: Tyrosine-protein kinase SYK (Homo sapiens, UniProt P43405); assay: Inhibition of SYK (unknown origin)
[15] = biological target: T2, Interleukin-1 receptor-associated kinase 4 (Homo sapiens, UniProt Q9NWZ3); assay: Inhibition of IRAK4 (unknown origin)
T2 sequence (Q9NWZ3 whole entry): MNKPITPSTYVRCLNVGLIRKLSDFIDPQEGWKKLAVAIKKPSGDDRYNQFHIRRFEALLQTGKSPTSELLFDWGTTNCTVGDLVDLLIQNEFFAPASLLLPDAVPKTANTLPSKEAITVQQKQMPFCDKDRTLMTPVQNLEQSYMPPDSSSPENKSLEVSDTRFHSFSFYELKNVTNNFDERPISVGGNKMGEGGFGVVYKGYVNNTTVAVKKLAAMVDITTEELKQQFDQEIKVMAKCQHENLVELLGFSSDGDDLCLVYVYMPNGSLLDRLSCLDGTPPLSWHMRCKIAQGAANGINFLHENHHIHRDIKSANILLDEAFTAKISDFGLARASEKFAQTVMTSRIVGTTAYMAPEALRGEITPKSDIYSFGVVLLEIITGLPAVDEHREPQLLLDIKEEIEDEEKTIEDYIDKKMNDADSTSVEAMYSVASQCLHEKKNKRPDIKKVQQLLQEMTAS

[16] = biological target: Glycogen synthase kinase-3 (Homo sapiens, UniProt P49840+P49841); assay: Inhibition of GSK3 (unknown origin); assay type: protein assay
[17] = biological target: Vascular endothelial growth factor receptor 2 (Homo sapiens, UniProt P35968); assay: Inhibition of KDR (unknown origin)
Sequence of Vascular endothelial growth factor receptor 2 (P35968 whole entry): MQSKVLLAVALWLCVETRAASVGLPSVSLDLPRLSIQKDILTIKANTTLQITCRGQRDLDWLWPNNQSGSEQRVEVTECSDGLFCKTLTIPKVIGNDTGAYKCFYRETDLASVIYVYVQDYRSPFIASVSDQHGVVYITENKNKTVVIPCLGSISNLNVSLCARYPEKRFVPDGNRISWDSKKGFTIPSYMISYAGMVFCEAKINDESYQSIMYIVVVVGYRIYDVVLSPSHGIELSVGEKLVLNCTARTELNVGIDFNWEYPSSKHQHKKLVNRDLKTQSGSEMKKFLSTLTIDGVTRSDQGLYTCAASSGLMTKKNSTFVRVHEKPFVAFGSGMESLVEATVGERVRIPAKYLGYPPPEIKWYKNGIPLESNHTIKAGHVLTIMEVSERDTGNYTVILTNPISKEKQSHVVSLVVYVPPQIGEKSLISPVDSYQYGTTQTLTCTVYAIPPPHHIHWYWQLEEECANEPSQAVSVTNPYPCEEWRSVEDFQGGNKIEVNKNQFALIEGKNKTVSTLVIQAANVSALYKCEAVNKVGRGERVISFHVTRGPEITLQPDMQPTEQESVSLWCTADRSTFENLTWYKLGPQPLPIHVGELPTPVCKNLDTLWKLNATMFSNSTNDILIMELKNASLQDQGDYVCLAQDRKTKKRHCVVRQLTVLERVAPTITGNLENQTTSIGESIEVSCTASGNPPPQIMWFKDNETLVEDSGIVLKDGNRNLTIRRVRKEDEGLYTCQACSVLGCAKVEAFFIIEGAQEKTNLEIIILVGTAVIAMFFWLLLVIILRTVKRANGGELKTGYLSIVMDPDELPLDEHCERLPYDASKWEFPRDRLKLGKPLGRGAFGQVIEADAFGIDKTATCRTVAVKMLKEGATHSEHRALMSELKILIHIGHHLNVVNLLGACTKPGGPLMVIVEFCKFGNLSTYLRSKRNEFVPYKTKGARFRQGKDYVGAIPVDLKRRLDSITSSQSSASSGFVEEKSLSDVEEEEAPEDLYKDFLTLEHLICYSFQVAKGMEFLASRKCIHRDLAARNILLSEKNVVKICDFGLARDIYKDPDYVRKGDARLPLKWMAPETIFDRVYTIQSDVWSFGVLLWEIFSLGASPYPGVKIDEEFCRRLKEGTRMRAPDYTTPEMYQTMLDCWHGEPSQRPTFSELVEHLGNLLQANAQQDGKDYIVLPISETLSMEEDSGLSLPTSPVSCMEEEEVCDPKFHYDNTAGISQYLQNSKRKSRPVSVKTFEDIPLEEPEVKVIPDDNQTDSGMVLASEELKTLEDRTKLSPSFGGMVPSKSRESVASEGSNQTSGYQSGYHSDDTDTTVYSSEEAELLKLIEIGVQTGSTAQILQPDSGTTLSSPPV

[18] = biological target: T3, Receptor-type tyrosine-protein kinase FLT3 (Homo sapiens, UniProt P36888); assay: Inhibition of FLT3 (unknown origin)
T3 sequence (P36888 whole entry): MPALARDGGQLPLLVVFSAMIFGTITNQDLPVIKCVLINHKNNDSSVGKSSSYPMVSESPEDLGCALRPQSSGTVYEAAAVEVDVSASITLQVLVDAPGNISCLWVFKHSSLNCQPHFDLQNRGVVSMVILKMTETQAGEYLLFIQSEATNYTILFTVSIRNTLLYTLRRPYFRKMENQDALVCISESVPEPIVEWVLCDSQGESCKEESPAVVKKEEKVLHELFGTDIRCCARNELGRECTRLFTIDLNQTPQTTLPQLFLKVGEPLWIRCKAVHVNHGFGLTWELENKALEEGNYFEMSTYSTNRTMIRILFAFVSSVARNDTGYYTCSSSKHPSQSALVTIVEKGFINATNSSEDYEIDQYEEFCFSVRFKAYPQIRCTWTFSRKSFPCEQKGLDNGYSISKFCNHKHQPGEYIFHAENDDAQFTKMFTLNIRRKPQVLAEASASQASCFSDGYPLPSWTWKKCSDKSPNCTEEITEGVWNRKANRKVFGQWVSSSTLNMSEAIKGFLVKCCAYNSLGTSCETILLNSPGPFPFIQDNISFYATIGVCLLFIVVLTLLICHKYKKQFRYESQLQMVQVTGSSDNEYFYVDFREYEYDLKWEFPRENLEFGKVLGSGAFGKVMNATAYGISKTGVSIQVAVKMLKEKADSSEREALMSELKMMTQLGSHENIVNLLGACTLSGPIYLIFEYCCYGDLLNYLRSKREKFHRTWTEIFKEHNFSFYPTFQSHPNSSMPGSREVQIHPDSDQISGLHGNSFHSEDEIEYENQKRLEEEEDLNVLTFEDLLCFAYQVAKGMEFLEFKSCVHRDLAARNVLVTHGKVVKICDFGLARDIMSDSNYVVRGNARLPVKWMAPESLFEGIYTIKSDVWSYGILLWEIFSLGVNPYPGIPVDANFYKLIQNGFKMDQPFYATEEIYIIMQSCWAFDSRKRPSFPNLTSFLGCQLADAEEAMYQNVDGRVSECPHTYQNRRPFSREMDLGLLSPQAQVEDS

[19] = biological target: Serine/threonine-protein kinase PLK1 (Homo sapiens, UniProt P53350); assay: Inhibition of PLK (unknown origin)
Sequence of Serine/threonine-protein kinase PLK1 (P53350 whole entry): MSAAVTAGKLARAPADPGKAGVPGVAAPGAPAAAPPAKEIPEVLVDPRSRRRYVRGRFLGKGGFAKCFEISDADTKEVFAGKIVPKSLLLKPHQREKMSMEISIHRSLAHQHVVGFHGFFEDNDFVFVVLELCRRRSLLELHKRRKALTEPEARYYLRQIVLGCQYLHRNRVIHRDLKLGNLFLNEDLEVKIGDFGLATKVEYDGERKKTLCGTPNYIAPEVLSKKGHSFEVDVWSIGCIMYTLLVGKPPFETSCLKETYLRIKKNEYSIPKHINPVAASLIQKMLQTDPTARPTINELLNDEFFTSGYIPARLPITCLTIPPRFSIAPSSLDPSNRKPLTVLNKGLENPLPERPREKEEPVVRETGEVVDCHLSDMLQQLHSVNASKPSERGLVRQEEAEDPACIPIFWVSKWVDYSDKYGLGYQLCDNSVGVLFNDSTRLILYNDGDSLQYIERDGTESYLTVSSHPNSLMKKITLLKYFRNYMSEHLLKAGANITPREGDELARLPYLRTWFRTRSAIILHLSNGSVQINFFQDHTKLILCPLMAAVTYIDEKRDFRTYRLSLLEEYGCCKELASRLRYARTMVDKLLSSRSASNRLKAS

Row | SMILES | Ki [1] [µM] | Ki [2] [µM] | Ki [3] [µM] | Ki [4] [µM] | Ki [5] [µM] | EC50 (Influenza A virus [6]) [µM] | EC99 (Influenza A virus [6]) [µM] | Ki [7] [µM] | Ki [8] [µM] | Ki [9] [µM] | IC50 (Influenza A virus [10]) [µM] | Ki [11] [µM] | Ki [12] [µM] | Ki [13] [µM] | Ki [14] [µM] | Ki [15] [µM] | Ki [16] [µM] | Ki [17] [µM] | Ki [18] [µM] | Ki [19] [µM]
1 | CC(=O)NS(=O)(=O)[C@H]1C2CCC(CC2)[C@@H]1Nc1nc(-c2c[nH]c3ncc(F)cc23)ncc1F (mixture of isomers) | > 4 | > 4 | > 4 | > 4 | > 4 | 0.009 | 0.16 | > 4 | > 4 | > 4 | 0.019 | > 4 | 1.5 | > 4 | > 4 | > 4 | 0.31 | > 4 | 2.8 | > 4
2 | NS(=O)(=O)[C@H]1C2CCC(CC2)[C@@H]1Nc1nc(-c2c[nH]c3ncc(F)cc23)ncc1F (mixture of isomers) | 0.49 | > 4 | > 4 | > 4 | 0.98 | 0.006 | 0.064 | 0.84 | > 4 | 1.9 | 0.006 | > 4 | 1.1 | 3.1 | > 4 | > 4 | 0.085 | 1.9 | 1.2 | 2.1
3 | O=c1nc([C@H]2C3CCC(CC3)[C@@H]2Nc2nc(-c3c[nH]c4ncc(F)cc34)ncc2F)[nH]o1 (mixture of isomers) | > 4 | > 4 | > 4 | > 4 | > 4 | 0.029 | 0.14 | > 4 | > 4 | > 4 | – | > 4 | > 4 | > 4 | > 4 | > 4 | > 4 | > 4 | > 4 | > 4
4 | O=C(O)[C@H]1C2CCC(CC2)[C@@H]1Nc1nc(-c2c[nH]c3ncc(F)cc23)ncc1F [PIMODIVIR] | – | – | – | – | – | 0.002 | 0.011 | > 4 | – | – | 0.002 | – | – | – | – | – | 1.6 | – | > 4 | –

From ChEMBL document CHEMBL3399966, “Isosteric replacements of the carboxylic acid of drug candidate VX-787: Effect of charge on antiviral potency and kinase activity of azaindole-based influenza PB2 inhibitors” (Bioorg Med Chem Lett, 2015)
